Structures are written as SMILES. Several values for one entry are separate records, joined by “and”; a condition that tells them apart may be missing. Equal entries are not always repeated. Some results are limits rather than exact numbers.

The target of data set [1] is β-CA from Burkholderia pseudomallei (BpsCAβ) (Burkholderia pseudomallei, UniProt Q63Y17). The data set is classed as biochemical. To be noted: for Ki: read-out: KI BpsCAβ.
The target in data set [2] is hCA XII (Homo sapiens, UniProt O43570). Nature of the data set: stopped-flow CO2 hydrase assay, hCA XII. It counts as biochemical. To be noted: for Ki: stopped-flow CO2 hydrase assay, mean from 3 different assays.
In data set [3] the target is γ-CA from E. coli (Escherichia coli, UniProt P0A9W9). It counts as biochemical. To be noted: for Ki: stopped-flow CO2 hydrase assay, mean from 3 different assays; for selectivity index (SI) against BpsCAβ: E. coli γ versus BpsCAβ; for selectivity index (SI) against BpsCAγ: E. coli γ versus BpsCAγ; for selectivity index (SI) against E. coli β: E. coli γ versus E. coli β; for selectivity index (SI) against PgiCAγ: E. coli γ versus PgiCAγ.

Data set [4] concerns the target γ-CA from Porphyromonas gingivalis (PgiCAγ) (Porphyromonas gingivalis, UniProt Q7MV79). It counts as biochemical. To be noted: for Ki: stopped-flow CO2 hydrase assay, mean from 3 different assays.
The target of data set [5] is BpsCAγ (Burkholderia pseudomallei, UniProt Q63SQ4). It counts as biochemical. To be noted: read-out: KI BpsCAγ.
In data set [6] the target is hCA II (Homo sapiens, UniProt P00918). The data set is described as follows: stopped-flow CO2 hydrase assay, hCA II. The data set is classed as biochemical. To be noted: for Ki: stopped-flow CO2 hydrase assay, mean from 3 different assays, read-out: KI hCAII; for selectivity index (SI) toward hCA I / selectivity index (SI) towards hCA IX / selectivity index (SI) towards hCA XII: hCA II inhibitor; for selectivity index (SI) toward hCA I: hCA II versus hCA I; for selectivity index (SI) towards hCA IX: hCA II versus hCA IX; for selectivity index (SI) towards hCA XII: hCA II versus hCA XII.

Data set [7] deals with hCA I (Homo sapiens, UniProt P00915). The data set is described as follows: stopped-flow CO2 hydrase assay, hCA I. To be noted: for Ki: stopped-flow CO2 hydrase assay, mean from 3 different assays. The data set is classed as biochemical.
Data set [8] concerns the target β-CA from E. coli (Escherichia coli, UniProt P61517). The data set is described as follows: stopped-flow CO2 hydrase assay, E. coli β-CA. It counts as biochemical.
Data set [9] deals with hCA IX (Homo sapiens, UniProt Q16790). The data set is described as follows: stopped-flow CO2 hydrase assay, hCA IX. It counts as biochemical. To be noted: for selectivity index (SI) for hCA I: hCA IX inhibitor, hCA IX versus hCA I; for Ki: stopped-flow CO2 hydrase assay, mean from 3 different assays.
For data set [10], the target named is β-CA from Vibrio cholerae (VhCAβ) (Vibrio cholerae, UniProt A0A086SLX8). The data set is described as follows: biochemical.
Chain of β-CA from Vibrio cholerae (VhCAβ) (A0A086SLX8 entry or part of it): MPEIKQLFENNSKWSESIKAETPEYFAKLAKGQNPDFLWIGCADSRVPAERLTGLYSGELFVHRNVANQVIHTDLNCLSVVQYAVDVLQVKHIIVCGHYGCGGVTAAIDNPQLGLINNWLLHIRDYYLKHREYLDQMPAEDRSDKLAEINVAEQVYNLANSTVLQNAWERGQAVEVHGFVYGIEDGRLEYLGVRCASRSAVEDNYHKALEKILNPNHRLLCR

Chain of γ-CA from E. coli (P0A9W9 whole entry): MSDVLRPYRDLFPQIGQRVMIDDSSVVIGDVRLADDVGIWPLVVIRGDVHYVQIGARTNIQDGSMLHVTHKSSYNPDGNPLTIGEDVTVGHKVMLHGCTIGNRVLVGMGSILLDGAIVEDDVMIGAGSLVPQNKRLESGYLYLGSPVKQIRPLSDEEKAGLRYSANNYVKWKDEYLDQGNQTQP
Chain of BpsCAγ (Q63SQ4 1-174): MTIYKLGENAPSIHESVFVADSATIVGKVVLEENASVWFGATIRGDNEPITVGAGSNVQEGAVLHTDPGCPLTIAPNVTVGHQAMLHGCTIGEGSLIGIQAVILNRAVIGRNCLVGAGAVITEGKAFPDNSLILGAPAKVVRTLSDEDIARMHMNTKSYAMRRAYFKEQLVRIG
Chain of γ-CA from Porphyromonas gingivalis (PgiCAγ) (Q7MV79 entry or part of it): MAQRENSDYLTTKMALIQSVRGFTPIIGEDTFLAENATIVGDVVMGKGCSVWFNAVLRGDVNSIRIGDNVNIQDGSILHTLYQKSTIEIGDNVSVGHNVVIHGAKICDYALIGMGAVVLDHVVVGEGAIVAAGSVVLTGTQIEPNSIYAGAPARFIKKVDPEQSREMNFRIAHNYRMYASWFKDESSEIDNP
Chain of β-CA from Burkholderia pseudomallei (BpsCAβ) (Q63Y17 1-256): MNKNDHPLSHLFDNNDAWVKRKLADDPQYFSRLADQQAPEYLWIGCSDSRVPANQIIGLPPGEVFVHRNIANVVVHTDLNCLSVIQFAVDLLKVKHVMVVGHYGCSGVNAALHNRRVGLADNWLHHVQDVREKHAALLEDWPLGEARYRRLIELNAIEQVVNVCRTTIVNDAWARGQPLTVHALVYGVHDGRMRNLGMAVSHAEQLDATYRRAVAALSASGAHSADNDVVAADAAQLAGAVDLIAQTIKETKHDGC
Chain of hCA XII (O43570 25-354): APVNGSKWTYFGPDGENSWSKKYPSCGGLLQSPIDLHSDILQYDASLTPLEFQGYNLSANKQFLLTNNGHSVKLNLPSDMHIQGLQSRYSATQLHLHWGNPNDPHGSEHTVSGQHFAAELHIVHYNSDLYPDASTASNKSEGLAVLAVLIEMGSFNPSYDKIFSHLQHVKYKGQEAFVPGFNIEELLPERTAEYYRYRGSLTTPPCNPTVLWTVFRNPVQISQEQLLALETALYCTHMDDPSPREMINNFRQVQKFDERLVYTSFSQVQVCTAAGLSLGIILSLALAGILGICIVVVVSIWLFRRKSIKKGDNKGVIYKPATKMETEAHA
Chain of hCA I (P00915 whole entry): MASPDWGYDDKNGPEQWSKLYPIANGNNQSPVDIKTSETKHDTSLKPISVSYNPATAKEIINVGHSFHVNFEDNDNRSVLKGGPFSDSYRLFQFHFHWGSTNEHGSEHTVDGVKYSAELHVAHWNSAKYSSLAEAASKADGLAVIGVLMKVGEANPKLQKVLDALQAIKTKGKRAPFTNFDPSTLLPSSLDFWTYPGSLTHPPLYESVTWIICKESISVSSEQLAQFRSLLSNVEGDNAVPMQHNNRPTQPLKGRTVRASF
Chain of β-CA from E. coli (P61517 whole entry): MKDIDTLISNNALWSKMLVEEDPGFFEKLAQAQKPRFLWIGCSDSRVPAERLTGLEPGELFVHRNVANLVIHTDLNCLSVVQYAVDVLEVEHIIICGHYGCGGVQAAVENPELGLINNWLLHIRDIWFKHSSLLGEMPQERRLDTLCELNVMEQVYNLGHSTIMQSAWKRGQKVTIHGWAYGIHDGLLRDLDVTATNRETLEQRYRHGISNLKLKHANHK

Turning to `COC(=O)c1cn(CCS(N)(=O)=O)cc2c(=O)[nH]nc1-2` [Compound 1a, Methyl 3-oxo-5-(2-sulfamoylethyl)-3,5-dihydro-2H-pyrazolo[4,3-c]pyridine-7-carboxylate], the melting point (in general, the temperature, or range, at which the solid turns liquid) was more than 300 °C. Besides, in [1], the inhibitory constant (Ki) (usually the equilibrium dissociation constant of an inhibitor or competing ligand from its target) stood at 654 nM. The affinity in data set [2] corresponds to a Ki of 282 nM. The compound further displayed an inhibitory constant (Ki) in data set [3] of 61.8 nM. In data set [4], the affinity corresponds to a Ki of 783 nM. Besides, the Ki in [5] came to 913 nM. In addition, in [6], the Ki was 7330 nM. Besides, in [7], the Ki stood at 8010 nM. The compound further returned a Ki in [8] of 862 nM. For the same compound, in [9], the “selectivity index (SI) for hCA I” value worked out at 81.8 and the Ki came out at 97.9 nM. The same compound gave a Ki in data set [10] of 2330 nM.

The compound `COC(=O)c1cn(-c2ccc(S(N)(=O)=O)cc2)cc2c(=O)[nH]nc1-2` [Compound 1b, Methyl 3-oxo-5-(4-sulfamoylphenyl)-3,5-dihydro-2H-pyrazolo[4,3-c]pyridine-7-carboxylate] yielded a melting point of more than 300 °C. In [1], the inhibition constant (Ki) is 229 nM. Besides, the Ki in data set [2] came to 358 nM. In data set [3] (E. coli γ-CA inhibitor), the “selectivity index (SI) against BpsCAβ” value amounted to 3.96; the “selectivity index (SI) against BpsCAγ” value is reported as 8.88; the “selectivity index (SI) against E. coli β” value was 59.8; the “selectivity index (SI) against PgiCAγ” value was 1.59 and 1.57 and 1.5. The “selectivity index (SI) against VhCAβ” value in [3] (E. coli γ-CA inhibitor, E. coli γ versus VhCAβ) was determined as 14.6. Affinity in data set [3] was put at a Ki of 57.8 nM. Also, the affinity in data set [4], expressed as Ki, was 91 nM. The inhibition constant Ki in data set [5] worked out at 513 nM. Moreover, the Ki in data set [6] came out at 51.4 nM. Also, the “decreased activity against hCA I” value in [7] (compared with 1f) is reported as ~ 2.7 times. Also, the Ki in data set [7] is 157 nM. The compound further had a Ki in data set [8] of 3460 nM. The compound further gave a Ki in data set [9] of 319 nM. Moreover, the affinity in [10], expressed as Ki, was 844 nM.

Consider `COC(=O)c1cn(-c2cccc(S(N)(=O)=O)c2)cc2c(=O)[nH]nc1-2` [Compound 1c, Methyl 3-oxo-5-(3-sulfamoylphenyl)-3,5-dihydro-2H-pyrazolo[4,3-c]pyridine-7-carboxylate], for which the melting point was more than 300 °C. In addition, in [1], the Ki was 785 nM. Further, the Ki in data set [2] amounted to 143 nM. Also, the affinity in data set [3], expressed as Ki, was 79.1 nM. The same compound gave a Ki in [4] of 637 nM. Further, the Ki in data set [5] turned out to be 614 nM. In addition, the Ki in data set [6] was found to be 247 nM. The same compound yielded a Ki in data set [7] of 1440 nM. For the same compound, in data set [8], the affinity, expressed as Ki, was 3840 nM. Affinity in [9] was put at a Ki of 590 nM. In [10], this compound registered an inhibition constant (Ki) of 913 nM.

Take `COC(=O)C1=CN(Cc2ccc(S(N)(=O)=O)cc2)C=C2C(=O)N=NC21` (stereo not drawn) [Compound 1d, 3-oxo-5-(4-sulfamoylbenzyl)-3,5-dihydro-2H-pyrazolo[4,3-c]pyridine-7-carboxylate]: the melting point was more than 300 °C.

`COC(=O)c1cn(CCc2ccc(S(N)(=O)=O)cc2)cc2c(=O)[nH]nc1-2` [Compound 1e, Methyl 3-oxo-5-(4-sulfamoylphenethyl)-3,5-dihydro-2H-pyrazolo[4,3-c]pyridine-7-carboxylate] yielded a melting point of more than 300 °C. Further, the Ki in [1] worked out at 683 nM. In [2], this compound had a Ki of 397 nM. Moreover, in [3] (E. coli γ-CA inhibitor), the “selectivity index (SI) against BpsCAβ” value is 3.96, the “selectivity index (SI) against BpsCAγ” value stood at 8.88, the “selectivity index (SI) against E. coli β” value is recorded as 59.8 and the “selectivity index (SI) against PgiCAγ” value came out at 1.59. The Ki in [3] turned out to be 58.1 nM. The compound further yielded a Ki in [4] of 96.1 nM. Moreover, the Ki in data set [5] is 1340 nM. For the same compound, the Ki in [6] turned out to be 658 nM. In data set [7], this compound yielded a Ki of 864 nM. Moreover, in data set [8], the Ki was found to be 3140 nM. For the same compound, in data set [9], affinity was put at a Ki of 849 nM. In data set [10], the inhibitory constant (Ki) was 840 nM.

On to `COC(=O)c1cn(CC(=O)Nc2ccc(S(N)(=O)=O)cc2)cc2c(=O)[nH]nc1-2` [Compound 1f], for which the melting point is more than 300 °C. Moreover, the Ki in data set [1] worked out at 236 nM. Besides, the affinity in [2] corresponds to a Ki of 475 nM. In addition, in [3], the Ki was determined as 66.8 nM. Also, the Ki in data set [4] was 668 nM. Besides, the Ki in data set [5] was found to be 2180 nM. Also, in [6], the “selectivity index (SI) toward hCA I” value is given as 9, the “selectivity index (SI) towards hCA IX” value is 137.5, the “selectivity index (SI) towards hCA XII” value came to 71.9 and the inhibition constant Ki is 6.6 nM. The compound also gave a Ki in [7] of 58.8 nM. This compound also showed a Ki in [8] of 3650 nM. This compound also registered a Ki in data set [9] of 907 nM. This compound also had a Ki in [10] of 467 nM.

Turning to `CC(=O)N1CC(Nc2ccc(S(N)(=O)=O)cc2)=CC1=O` [Compound 1g, 4-((1-Acetyl-5-oxo-2,5-dihydro-1H-pyrrol-3-yl)amino)benzenesulfonamide], the melting point fell in the range of 285 to 287 °C. For the same compound, the inhibition constant Ki in data set [1] is 664 nM. In addition, in [2], affinity was put at a Ki of 509 nM. In data set [3], affinity was put at a Ki of 205 nM. In addition, the “selectivity index (SI) towards VhCAβ” value in data set [4] (PgiCAγ inhibitor, PgiCAγ versus VhCAβ) came out at 17.4. For the same compound, the Ki in data set [4] was 83.1 nM. In addition, in data set [5], the Ki is 97.1 nM. Besides, the inhibitory constant (Ki) in data set [6] was 41.7 nM. In addition, affinity in [7] was put at a Ki of 66.8 nM. The compound also displayed a Ki in data set [8] of 454 nM. The compound also displayed a Ki in data set [9] of 294 nM. In addition, the inhibition constant Ki in data set [10] came to 1450 nM.

Consider `CC(=O)N1CC(Nc2cccc(S(N)(=O)=O)c2)=CC1=O` [Compound 1h, 3-((1-Acetyl-5-oxo-2,5-dihydro-1H-pyrrol-3-yl)amino)benzenesulfonamide], for which the Ki in [1] was determined as 2960 nM; in [2] it was 714 nM; in data set [3], 524 nM; in data set [4], 90 nM; in data set [5], 833 nM; in [6] it was 61.7 nM. Moreover, the inhibition constant (Ki) in data set [7] was determined as 136 nM; in data set [8] it was 712 nM; in data set [9], 94.3 nM; in [10], 2620 nM.

The compound `Cc1cc(O)cc(=O)n1CCS(N)(=O)=O` [Compound 1i, 2-(4-hydroxy-6-methyl-2-oxopyridin-1(2H)-yl)ethane-1-sulfonamide] came in with a melting point of 243 to 245 °C. In data set [1], the “selectivity index (SI) against VhCAβ” value was determined as 23.2, the “selectivity index (SI) against the β-CA from E. coli” value is given as 31.6 and the Ki worked out at 96.4 nM. The inhibitory constant (Ki) in data set [2] worked out at 105 nM. Moreover, the inhibition constant Ki in [3] is 92.7 nM. The same compound registered an inhibition constant (Ki) in data set [4] of 95.6 nM. Further, the inhibitory constant (Ki) in [5] was determined as 192 nM. In addition, the inhibition constant (Ki) in data set [6] worked out at 6790 nM. This compound also showed a Ki in data set [7] of 5440 nM. Besides, affinity in [8] was put at a Ki of 3050 nM. Further, in data set [9], the “selectivity index (SI) for hCA I” value was 74.9 and the Ki was found to be 79.6 nM. This compound came in with a Ki in data set [10] of 2240 nM.

`NS(=O)(=O)CCNC=C1C(=O)Oc2ccccc2C1=O` [Compound 1j, 2-(((2,4-dioxochroman-3-ylidene)methyl)amino)ethane-1-sulfonamide] returned a melting point of 197 to 199 °C. For the same compound, in [1], the Ki amounted to 789 nM. Also, the Ki in [2] came to 285 nM. The affinity in data set [3] corresponds to a Ki of 67.1 nM. In data set [4], this compound showed a Ki of 84.3 nM. Further, the Ki in [5] is 625 nM. For the same compound, the Ki in data set [6] came out at 5710 nM. In data set [7], the affinity corresponds to a Ki of 3860 nM. Further, the affinity in data set [8] corresponds to a Ki of 94.9 nM. In data set [9], affinity was put at a Ki of 97.8 nM. In data set [10], this compound had a Ki of 642 nM.

In turn, `CC12CC(c3ccccc3O1)C(C(N)=O)C(=O)N2CCc1ccc(S(N)(=O)=O)cc1` (stereo not drawn) [Compound 1k, 2-methyl-4-oxo-3-(4-sulfamoylphenethyl)-3,4,5,6-tetrahydro-2H-2,6-methanobenzo[g][1,3]oxazocine-5-carboxamide] gave a melting point of 225 to 227 °C. Besides, the Ki in data set [1] was 212 nM. Also, in data set [2] (hCA XII inhibitor, hCA XII versus hCA IX), the “selectivity index (SI) towards hCA IX” value worked out at 12.2. In [2], this compound yielded a Ki of 34.5 nM. In data set [3], this compound displayed an inhibition constant (Ki) of 63.5 nM. For the same compound, the affinity in data set [4], expressed as Ki, was 202 nM. For the same compound, the Ki in data set [5] stood at 952 nM. In data set [6], the “selectivity index (SI) toward hCA I” value turned out to be 15.8, the “selectivity index (SI) towards hCA IX” value was 75.25, the “selectivity index (SI) towards hCA XII” value is 6 and the inhibition constant Ki came out at 5.6 nM. This compound also had an inhibitory constant (Ki) in data set [7] of 88.3 nM. The compound further displayed an inhibition constant (Ki) in data set [8] of 3860 nM. The Ki in data set [9] stood at 421 nM. Further, the affinity in data set [10] corresponds to a Ki of 356 nM.

The record behind these values is publication PMC8955975, “Pyrazolo[4,3-c]pyridine Sulfonamides as Carbonic Anhydrase Inhibitors: Synthesis, Biological and In Silico Studies” (Pharmaceuticals, 2022).
